Test results reported in article PMC2747801 (European journal of pharmaceutical sciences : official …, 2009).
Several values for one entry are separate records, joined by “and”; a condition that tells them apart may be missing. Identical values can stand only once. Like-named read-outs stand apart in the source and are kept apart here.

Legend:
[1] = test system: P-glycoprotein (Pgp); conditions: male, CF-1, mouse, not told, pH 7.4
[2] = male, pH 7.4; for logPS(obs): in vivo
[3] = cited from earlier work
[4] = cited from earlier work; remark: listed apart in the source
[5] = rodent and comment not printed ref Fernstermacher 1989; cited from earlier work
[6] = rat, cited from earlier work
[7] = male, CF-1, mouse, in vivo, 1 µM, pH 7.4
[8] = PAMPA intrinsic permeability, cited from earlier work

## NCC1(CC(=O)O)CCCCC1 [gabapentin]
[1]
  Pgp Effect: 1.7
[2]; mouse
  logPS(obs): −2.34 mL/g/s
  Pgp Mutant Kin: 26 mL/100g/min
[3]; rat, in vivo
  logPS(obs): −2.56 mL/g/s
other
  logPo^PAMPA: −3.36

## CC[C@]1(O)C[C@H]2CN(CCc3c([nH]c4ccccc34)[C@@](C(=O)OC)(c3cc4c(cc3OC)N(C=O)[C@H]3[C@@](O)(C(=O)OC)[C@H](OC(C)=O)[C@]5(CC)C=CCN6CC[C@]43[C@@H]65)C2)C1 [vincristine]
[3]; rat ref Greig et al. 1990
  logPS(obs): −3.91 mL/g/s
[3]; rat ref Murakami et al. 2000
  logPS(obs): −4.10 mL/g/s
other
  logPo^PAMPA: −2.72
[4]; mouse ref Murakami et al. 2000
  logPS(obs): −4.12 mL/g/s
[4]; mouse, mdr1a(−/−) ref Cisternino et al. 2001
  logPS(obs): −3.82 mL/g/s
[4]; mouse, mrp1(−/−), footnote x ref Cisternino et al. 2003
  logPS(obs): −4.25 mL/g/s
[5]
  logPS(obs): −4.00 mL/g/s

## Cc1cn([C@H]2C[C@H](N=[N+]=[N-])[C@@H](CO)O2)c(=O)[nH]c1=O [zidovudine]
other
  logPo^PAMPA: −5.79
[6]; i.v. ref Wu et al. 1998
  logPS(obs): −3.99 mL/g/s

## COc1ccc(CCN2CCC(Nc3nc4ccccc4n3Cc3ccc(F)cc3)CC2)cc1 [astemizole]
[1]
  Pgp Effect: 1.1
[2]; CF-1, mouse, 1 µM
  Pgp Mutant Kin: 123 mL/100g/min
  logPS(obs): −1.55 mL/g/s
[7]
  Wild-Type Kin: 112 mL/100g/min
[8]; ref Bendels et al. 2006
  logPo^PAMPA: 1.00

## CN1CC(=O)NC1=N [creatinine]
other
  logPo^PAMPA: −7.52
[6]; i.v. ref Levin 1980
  logPS(obs): −4.55 mL/g/s and −4.70 mL/g/s

## O=C1NC(=O)C(c2ccccc2)(c2ccccc2)N1 [phenytoin]
[3]; rat ref Liu et al. 2004
  logPS(obs): −2.20 mL/g/s
[3]; rat, 5-50uM self-inhibition, training set ref Summerfield et al. 2007
  logPS(obs): −2.07 mL/g/s
[5]
  logPS(obs): −2.30 mL/g/s
[8]; ref Ruell et al. 2004
  logPo^PAMPA: −4.32
